Test results taken from US20170143674A1, “Use of Glutaryl Histamine for the Treatment of Respiratory Tract Diseases” (LTD "VALENTA-INTELLEKT", priority 2011, published 2017).
Like-named read-outs stand apart in the source and are kept apart here. Marks after values point to notes of the source that are not given here.

What was measured:
[1] = system: acute respiratory distress syndrome (ARDS); assay: ARDS model, multiple-dose intravenous LPS (LD30); type: in vivo, rat; conditions: for Died: total number 24
Method: Since an intravenous administration of lipopolysaccharide (LPS) to animals is one of the most acceptable models for studying the pathogenesis, pathomorphological changes and consequences of acute respiratory distress syndrome, this model was used in this example. Tested medicament glutaryl histamine was administered for 9 days after the first administration of LPS, i.e. glutaryl histamine was administered for 12 days in total (3 days before the induction of ARDS and 9 days during and after the induction). The exception was dexamethasone since, according to the literature data and the information leaflet, long-time administration of steroidal anti-inflammatory agents can cause severe side effects. For this reason, dexamethasone was administered according to the following schedule: 49, 24 and 1 hour before the induction of ARDS in a dose of 5 mg/kg, for 3 days after the first injection of LPS in the same dose; the medicament was withdrawn by a gradual dose reduction for 3 days. Thus, dexamethasone was administered 9 times.
At this step, animals were administered LPS at more lower dose, but for longer time period. They were received 2 mg/kg on days 1 and 2, and 3 and 4 mg/kg on days 3 and 4, respectively. The maximum mortality rate, similarly to the single-dose administration of LD70, was on the first day. On eighth day, mortality reached 33%.
The second step of the experiment comprises the evaluation of both the mortality rate of the animals with calculation of the protective index and narrower indexes used for determination of a specific protection provided by glutaryl histamine in ARDS. As was disclosed above, a lower dose of LPS (LD30) was used at the second stage. In addition, LPS was administered every day for 4 days. This method of administration was aimed at achieving the maximum disorder exactly in the lung for subsequent evaluation of possible protective action of glutaryl histamine.

[2] = system: acute rhinosinusitis induced by intranasal administration of formalin; type: in vivo, rat; conditions: for The number of caliciform cells within 1 mm of the mucosal membrane of the nasal septum: M ± m; for Mucopurulent catarrh (number of rats) / Mucous catarrh (number of rats) / Without changes (number of rats, mucous membrane in the nasal passages, macroscopic): n = 10
Method: Activity of glutaryl histamine was studied in an experimental model of acute rhinosinusitis (ARS).
Administration of 20 μl of 7.5% formalin to the rat nasal passages leads to the development of a clinical picture similar to the symptoms of acute rhinosinusitis in a human.
The tested medicament and reference medicaments were administered for 7 days after administration of 7.5% formalin. Normal saline solution was used as placebo. The animals were subjected to euthanasia on day 8 after induction of experimental acute rhinosinusitis by method of air embolism. During necropsy, nasal passages of all animals were sampled. The obtained material was placed into 10% neutral-buffered formalin for further histological analysis.
The mucous and submucous membranes of both nasal passages (respiratory and olfactory regions) of the experimental animals were subjected to a morphological analysis of the specific activity of glutaryl histamine.
After the clinical phase of the experiment, the material derived from the animals was subjected to the standard treatment to prepare histological paraffin sections with a thickness of 3 to 5 μm. The sections were stained with hematoxylin and eosin for a microscopic study. Comparison and histological analysis of changes were performed versus the group of intact rats.
The main pathological processes inherent in experimental acute rhinosinusitis, such as vascular congestion in mucous membrane, hyperplasia and necrosis of the epithelium, the number of caliciform cells within 1 mm of the mucous membrane in the nasal septum, were evaluated by a semi-quantitative method to evaluate the degree of pathophysiological changes in histological, histochemical and morphological studies.
The microscopic analysis of exudative disorder developed in rats with acute rhinitis was aimed at measuring the number of caliciform cells comprising acidic mucus (Table 3).

[3] = system: Escherichia coli (mouse-adapted strain 4300); assay: animal or person; type: in vivo, mice; conditions: for Mortality rate (%) / Survival rate (%): tenth day
Method: Escherichia coli (mouse-adaptedstrain 4300, Institute collection) was used as an infectious agent. Mice were infected intravenously.
Firstly, there were determined a lethal dose (LD100) of Escherichia coli to be intravenously administered to this line of mice with a certain weight. Fatal cases among mice were registered every day for ten days. […] For this purpose, mice were housed into cages (10 animals per cage) and infected with a lethal dose of Escherichia coli. One hour after each mouse was administered orally levofloxacin in doses of 1, 2, 4, 6, 8, 10, and 12 mg/kg. A group of mice infected with a lethal dose of Escherichia coli without the treatment was considered as a control group. Fatal cases among mice were registered every day for ten days.
The next step of the experiment was to study an effect of combined administration of glutaryl histamine and levofloxacin on a model of E. coli sepsis in mice.
In the experiment, mice were housed in following groups (10 animals per cage):
Glutaryl histamine was administered orally in the corresponding doses to mice of groups 3, 4, 5, 6, 7, and 8 for 5 days. Five day after, all groups of mice were intravenously administered 0.2 ml of Escherichia coli in the lethal dose. […] After infection and administration of levofloxacin, glutaryl histamine was administered to mice of groups 3-8 for additional 5 days. During the experiment, the animals were observed every day, and fatal cases were registered (see Table 14).

[4] = Glutaryl histamine 27 mg/kg, listed as Glutaryl histamine

O=C(O)CCCC(=O)NCCc1c[nH]cn1 [glutaryl histamine]
IP (%) (protective index) ([1]; Glutaryl histamine 0.5 mg/kg): 62.5%
M (%) (mortality rate) ([1]; Glutaryl histamine 0.5 mg/kg): 12.5%
S (%) (survival rate) ([1]; Glutaryl histamine 0.5 mg/kg): 87.5%
Died ([1]; Glutaryl histamine 0.5 mg/kg): 3
IP (%) (protective index) ([1]; Glutaryl histamine 27 mg/kg): 75%
M (%) (mortality rate) ([1]; Glutaryl histamine 27 mg/kg): 8.3%
S (%) (survival rate) ([1]; Glutaryl histamine 27 mg/kg): 91.7%
IP (%) (protective index) [1, 4]: 75.0%
Died ([1]; Glutaryl histamine 27 mg/kg): 2
The number of caliciform cells within 1 mm of the mucosal membrane of the nasal septum ([2]; Glutaryl histamine 9 mg/kg): 29.0 ± 2.7* **
Mucopurulent catarrh (number of rats) ([2]; Glutaryl histamine 9 mg/kg): 3
Mucous catarrh (number of rats) ([2]; Glutaryl histamine 9 mg/kg): 4
Without changes (number of rats, mucous membrane in the nasal passages, macroscopic) ([2]; Glutaryl histamine 9 mg/kg): 3
The number of caliciform cells within 1 mm of the mucosal membrane of the nasal septum ([2]; Glutaryl histamine 27 mg/kg): 19.6±2.4
The number of caliciform cells within 1 mm of the mucosal membrane of the nasal septum [2, 4]: 19.6 ± 2.4
Mucopurulent catarrh (number of rats) ([2]; Glutaryl histamine 27 mg/kg): 1
Mucous catarrh (number of rats) ([2]; Glutaryl histamine 27 mg/kg): 1
Without changes (number of rats, mucous membrane in the nasal passages, macroscopic) ([2]; Glutaryl histamine 27 mg/kg): 8
The number of caliciform cells within 1 mm of the mucosal membrane of the nasal septum ([2]; Glutaryl histamine 45 mg/kg): 23.9 ± 1.7* **
Mucopurulent catarrh (number of rats) ([2]; Glutaryl histamine 45 mg/kg): 0
Mucous catarrh (number of rats) ([2]; Glutaryl histamine 45 mg/kg): 0
Without changes (number of rats, mucous membrane in the nasal passages, macroscopic) ([2]; Glutaryl histamine 45 mg/kg): 10
died/survived animals ([3]; day 1, glutaryl histamine 15 mg/kg): 0/10
died/survived animals ([3]; day 1, glutaryl histamine 30 mg/kg): 0/10
died/survived animals ([3]; day 1, glutaryl histamine 45 mg/kg): 0/10
died/survived animals ([3]; day 2, glutaryl histamine 15 mg/kg): 0/10
died/survived animals ([3]; day 2, glutaryl histamine 30 mg/kg): 0/10
died/survived animals ([3]; day 2, glutaryl histamine 45 mg/kg): 1/9
died/survived animals ([3]; day 3, glutaryl histamine 15 mg/kg): 0/10
died/survived animals ([3]; day 3, glutaryl histamine 30 mg/kg): 0/10
died/survived animals ([3]; day 3, glutaryl histamine 45 mg/kg): 1/9
died/survived animals ([3]; day 4, glutaryl histamine 15 mg/kg): 1/9
died/survived animals ([3]; day 4, glutaryl histamine 30 mg/kg): 1/9
died/survived animals ([3]; day 4, glutaryl histamine 45 mg/kg): 3/7
died/survived animals ([3]; day 5, glutaryl histamine 15 mg/kg): 2/8
died/survived animals ([3]; day 5, glutaryl histamine 30 mg/kg): 3/7
died/survived animals ([3]; day 5, glutaryl histamine 45 mg/kg): 5/5
died/survived animals ([3]; day 6, glutaryl histamine 15 mg/kg): 5/5
died/survived animals ([3]; day 6, glutaryl histamine 30 mg/kg): 6/4
died/survived animals ([3]; day 6, glutaryl histamine 45 mg/kg): 7/3
died/survived animals ([3]; day 7, glutaryl histamine 15 mg/kg): 6/4
died/survived animals ([3]; day 7, glutaryl histamine 30 mg/kg): 7/3
died/survived animals ([3]; day 7, glutaryl histamine 45 mg/kg): 8/2
died/survived animals ([3]; day 8, glutaryl histamine 15 mg/kg): 8/2
died/survived animals ([3]; day 8, glutaryl histamine 30 mg/kg): 7/3
died/survived animals ([3]; day 8, glutaryl histamine 45 mg/kg): 9/1
died/survived animals ([3]; day 9, glutaryl histamine 15 mg/kg): 8/2
died/survived animals ([3]; day 9, glutaryl histamine 30 mg/kg): 8/2
died/survived animals ([3]; day 9, glutaryl histamine 45 mg/kg): 9/1
died/survived animals ([3]; day 10, glutaryl histamine 15 mg/kg): 8/2
died/survived animals ([3]; day 10, glutaryl histamine 30 mg/kg): 8/2
died/survived animals ([3]; day 10, glutaryl histamine 45 mg/kg): 9/1
Mortality rate (%) ([3]; glutaryl histamine 15 mg/kg): 80%
Survival rate (%) ([3]; glutaryl histamine 15 mg/kg): 20%
Mortality rate (%) ([3]; glutaryl histamine 30 mg/kg): 80%
Survival rate (%) ([3]; glutaryl histamine 30 mg/kg): 20%
Mortality rate (%) ([3]; glutaryl histamine 45 mg/kg): 90%
Survival rate (%) ([3]; glutaryl histamine 45 mg/kg): 10%
